Results reported in ChEMBL document CHEMBL1201862, “PubChem BioAssay data set” (2004).
The source made the active and inactive calls.

Key:
Vero [1] = assay: cells; assay type: functional; details: Chlorocebus sabaeus
Vero [2] = assay: West Nile virus antiviral activity, cell-based, CPE readout (AID 1621); assay type: functional; details: Chlorocebus sabaeus
[3] = A Cell Based Assay for the Identification of Probe candidate Compounds with Anti- Venezuelan Equine Encephalitis virus. [Related pubchem assays: 2409, 2419, 1621, 2238, 2405, 2024, 2065, 2402, 2414, 1635, 1650, 2244 ]; assay type: functional
Vero [4] = assay: West Nile virus CPE inhibition, SAR follow-up, cell-based, synthesized analogs (AID 2238); assay type: functional; details: Chlorocebus sabaeus
Vero [5] = assay: cytotoxicity of synthesized analogs in Vero cells, SAR follow-up, cytotoxicity control for West Nile virus antiviral project, cell-based, set II (AID 2402); assay type: functional; details: Chlorocebus sabaeus
Vero [6] = assay: cytotoxicity of synthesized analogs in Vero 76, SAR follow-up, cytotoxicity control for West Nile virus antiviral project, Vero 76 cells (AID 2414); assay type: functional; details: Chlorocebus sabaeus
Vero [7] = assay: Vero E6 cell cytotoxicity, SAR follow-up, cytotoxicity control for West Nile virus antiviral project, synthesized analogs (AID 2244); assay type: functional; details: Chlorocebus sabaeus
[8] = biological target: Scavenger receptor class B member 1 (Mus musculus, UniProt Q61009); assay: inhibitors of SR-BI mediated HDL lipid uptake, dose response, ldlA[mSR-BI] cells, fluorescence, cherry pick (AID 493194); assay type: functional, cell-based;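 note: cellular uptake of fluorescent DiI-labeled HDL measured as cell fluorescence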
Chain of Scavenger receptor class B member 1 (Q61009 whole entry): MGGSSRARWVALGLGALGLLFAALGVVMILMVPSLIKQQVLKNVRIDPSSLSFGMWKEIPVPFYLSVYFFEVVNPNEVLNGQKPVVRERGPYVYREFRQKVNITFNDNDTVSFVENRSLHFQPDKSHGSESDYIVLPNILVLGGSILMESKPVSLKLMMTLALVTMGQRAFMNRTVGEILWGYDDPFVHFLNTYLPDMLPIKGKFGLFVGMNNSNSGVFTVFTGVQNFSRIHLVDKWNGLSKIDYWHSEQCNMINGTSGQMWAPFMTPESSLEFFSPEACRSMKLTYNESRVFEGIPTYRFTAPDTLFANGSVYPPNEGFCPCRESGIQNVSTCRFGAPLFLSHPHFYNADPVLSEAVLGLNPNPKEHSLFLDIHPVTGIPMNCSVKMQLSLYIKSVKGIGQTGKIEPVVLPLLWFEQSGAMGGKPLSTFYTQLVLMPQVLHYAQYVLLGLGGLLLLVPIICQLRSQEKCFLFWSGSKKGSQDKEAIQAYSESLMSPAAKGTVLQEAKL

Estrogen receptor = biological target: T1, Estrogen receptor (Homo sapiens, UniProt P03372);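 note: potency for inhibiting coactivator peptide recruitment to the receptor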
T1 sequence (P03372 whole entry): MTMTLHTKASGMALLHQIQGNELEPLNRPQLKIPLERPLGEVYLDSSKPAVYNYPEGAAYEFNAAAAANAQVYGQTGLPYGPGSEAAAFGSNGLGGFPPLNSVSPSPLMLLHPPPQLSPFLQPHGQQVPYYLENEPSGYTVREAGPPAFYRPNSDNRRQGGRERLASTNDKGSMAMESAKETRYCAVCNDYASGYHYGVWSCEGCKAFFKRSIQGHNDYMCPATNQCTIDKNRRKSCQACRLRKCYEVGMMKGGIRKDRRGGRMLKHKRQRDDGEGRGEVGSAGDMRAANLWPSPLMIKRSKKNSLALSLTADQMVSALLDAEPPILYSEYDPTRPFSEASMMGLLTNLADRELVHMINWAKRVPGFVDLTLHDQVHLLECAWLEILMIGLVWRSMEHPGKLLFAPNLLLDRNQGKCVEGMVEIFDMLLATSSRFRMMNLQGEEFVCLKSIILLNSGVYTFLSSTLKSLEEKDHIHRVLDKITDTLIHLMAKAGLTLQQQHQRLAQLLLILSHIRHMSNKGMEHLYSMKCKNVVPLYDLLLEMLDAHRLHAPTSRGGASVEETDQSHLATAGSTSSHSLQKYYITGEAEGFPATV

[9] = biological target: G-protein coupled receptor 55 (Homo sapiens, UniProt Q9Y2T6); assay: GPR55 agonists via beta-arrestin recruitment, primary screen, imaging, U2OS cells, beta-arrestin-GFP redistribution (AID 1961); assay type: functional
Chain of G-protein coupled receptor 55 (Q9Y2T6 whole entry): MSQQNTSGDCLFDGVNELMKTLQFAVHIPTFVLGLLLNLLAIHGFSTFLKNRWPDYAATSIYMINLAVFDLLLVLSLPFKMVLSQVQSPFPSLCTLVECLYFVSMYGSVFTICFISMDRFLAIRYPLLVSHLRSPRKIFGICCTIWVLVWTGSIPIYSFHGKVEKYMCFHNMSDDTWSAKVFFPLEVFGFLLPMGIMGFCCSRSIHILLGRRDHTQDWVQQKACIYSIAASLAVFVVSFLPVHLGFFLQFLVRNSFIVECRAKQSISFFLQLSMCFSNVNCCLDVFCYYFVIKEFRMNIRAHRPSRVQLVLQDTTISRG

[10] = growth suppression of PTEN-null colon cells, dose response, cell-based, HCT116 PTEN knockout (AID 1047); assay type: functional;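 note: HCT116 colon tumor cells with PTEN knocked out; cells exposed to compound for 60 hours before readout; potency for loss of cell viability measured by luminescence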
[11] = growth suppression of beta-catenin-knockout colon cells, dose response, cell-based, HCT116, human colon tumor (AID 1045); assay type: functional;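 note: HCT116 colon tumor cells with beta catenin knocked out; cells exposed to compound for 60 hours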
[12] = biological target: Arf-GAP with SH3 domain, ANK repeat and PH domain-containing protein 1 (Homo sapiens, UniProt Q9ULH1); assay type: functional;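 note: biochemical fluorescence polarization dose–response screen measuring inhibition of ASAP1; ASAP1 GAP domain stimulating GTP hydrolysis by truncated human ARF1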
Chain of Arf-GAP with SH3 domain, ANK repeat and PH domain-containing protein 1 (Q9ULH1 whole entry, the tested form may be a part): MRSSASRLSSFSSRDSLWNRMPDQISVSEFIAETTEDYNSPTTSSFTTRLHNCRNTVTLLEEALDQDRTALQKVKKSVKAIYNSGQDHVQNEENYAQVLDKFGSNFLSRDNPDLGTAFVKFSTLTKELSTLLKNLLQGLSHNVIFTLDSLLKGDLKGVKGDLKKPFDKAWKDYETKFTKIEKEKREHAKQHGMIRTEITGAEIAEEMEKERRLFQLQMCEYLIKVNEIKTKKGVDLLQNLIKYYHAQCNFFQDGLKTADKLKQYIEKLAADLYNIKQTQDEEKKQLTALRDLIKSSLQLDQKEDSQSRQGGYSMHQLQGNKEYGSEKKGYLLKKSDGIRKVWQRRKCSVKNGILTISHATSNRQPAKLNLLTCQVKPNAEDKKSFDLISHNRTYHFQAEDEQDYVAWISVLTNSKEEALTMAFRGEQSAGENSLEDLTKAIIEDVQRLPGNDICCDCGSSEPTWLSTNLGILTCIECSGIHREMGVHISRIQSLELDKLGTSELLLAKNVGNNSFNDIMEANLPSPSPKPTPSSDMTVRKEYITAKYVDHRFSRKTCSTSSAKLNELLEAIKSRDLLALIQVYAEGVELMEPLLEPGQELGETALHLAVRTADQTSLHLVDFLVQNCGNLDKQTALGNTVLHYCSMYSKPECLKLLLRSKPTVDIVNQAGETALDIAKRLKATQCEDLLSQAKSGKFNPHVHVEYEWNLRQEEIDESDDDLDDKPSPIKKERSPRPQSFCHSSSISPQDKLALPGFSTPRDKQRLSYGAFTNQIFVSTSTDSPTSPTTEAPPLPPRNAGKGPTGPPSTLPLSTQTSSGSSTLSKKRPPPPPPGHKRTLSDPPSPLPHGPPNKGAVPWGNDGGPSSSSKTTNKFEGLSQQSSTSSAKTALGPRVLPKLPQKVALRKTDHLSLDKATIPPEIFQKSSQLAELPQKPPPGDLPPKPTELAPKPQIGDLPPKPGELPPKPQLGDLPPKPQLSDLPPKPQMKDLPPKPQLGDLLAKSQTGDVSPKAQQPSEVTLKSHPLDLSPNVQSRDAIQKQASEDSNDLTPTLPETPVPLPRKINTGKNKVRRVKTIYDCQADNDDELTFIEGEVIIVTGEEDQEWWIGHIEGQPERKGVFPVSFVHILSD

[13] = biological target: T2, Ubiquitin-conjugating enzyme E2 N (Homo sapiens, UniProt P61088); assay type: functional;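 note: Dose-response confirmation in a TR-FRET assay detecting UBC13-driven polyubiquitin chain formation, inhibition measured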
T2 sequence (P61088 whole entry): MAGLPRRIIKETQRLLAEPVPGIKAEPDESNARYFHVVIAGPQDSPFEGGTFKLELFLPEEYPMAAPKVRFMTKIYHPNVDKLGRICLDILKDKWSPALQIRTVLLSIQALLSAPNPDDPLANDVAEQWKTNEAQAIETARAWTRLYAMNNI

[14] = biological target: Neurotensin receptor type 1 (Homo sapiens, UniProt P30989); assay type: functional;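 note: Image-based confirmatory dose-response assay measuring agonist activity at NTR1; NTR1-expressing U2OS osteosarcoma cells imaged for beta-arrestin GFP spot formation; agonist potency where compounds increase beta-arrestin recruitment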
Chain of Neurotensin receptor type 1 (P30989 whole entry): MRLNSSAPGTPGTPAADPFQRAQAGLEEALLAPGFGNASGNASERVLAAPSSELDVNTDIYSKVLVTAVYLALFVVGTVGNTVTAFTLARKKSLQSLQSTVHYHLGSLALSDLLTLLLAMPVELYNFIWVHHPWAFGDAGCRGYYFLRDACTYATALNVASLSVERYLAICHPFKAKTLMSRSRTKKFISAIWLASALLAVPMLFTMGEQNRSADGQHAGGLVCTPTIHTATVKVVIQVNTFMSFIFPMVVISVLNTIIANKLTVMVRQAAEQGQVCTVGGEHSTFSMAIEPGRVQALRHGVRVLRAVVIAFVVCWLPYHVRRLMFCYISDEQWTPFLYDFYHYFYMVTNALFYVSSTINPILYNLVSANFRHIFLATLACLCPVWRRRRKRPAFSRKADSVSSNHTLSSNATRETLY

[15] = biological target: T3, Endoribonuclease toxin MazF (Escherichia coli K-12, UniProt P0AE70); assay: fluorescent RNA oligo signal without MazF, dose response, counter-screen for MazEF activator project, biochemical, fluorescence, single-stranded RNase substrate (AID 588502); assay type: functional
T3 sequence (P0AE70 whole entry): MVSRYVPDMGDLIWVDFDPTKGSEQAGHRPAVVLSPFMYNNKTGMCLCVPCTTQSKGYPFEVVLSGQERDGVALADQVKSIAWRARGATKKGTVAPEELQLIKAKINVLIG

[16] = biological target: T3, Endoribonuclease toxin MazF; assay: MazF toxin RNase activators, dose response, biochemical, fluorescence, single-stranded RNA substrate, uHTS hits (AID 588481); assay type: functional
[17] = biological target: Intestinal-type alkaline phosphatase (Homo sapiens, UniProt P09923); assay: Dose Response confirmation of uHTS hits from a small molecule inhibitors of human intestinal alkaline phosphatase via a luminescent assay. [Related pubchem assays (depositor defined):AID2544, AID2574]; assay type: functional
Chain of Intestinal-type alkaline phosphatase (P09923 whole entry): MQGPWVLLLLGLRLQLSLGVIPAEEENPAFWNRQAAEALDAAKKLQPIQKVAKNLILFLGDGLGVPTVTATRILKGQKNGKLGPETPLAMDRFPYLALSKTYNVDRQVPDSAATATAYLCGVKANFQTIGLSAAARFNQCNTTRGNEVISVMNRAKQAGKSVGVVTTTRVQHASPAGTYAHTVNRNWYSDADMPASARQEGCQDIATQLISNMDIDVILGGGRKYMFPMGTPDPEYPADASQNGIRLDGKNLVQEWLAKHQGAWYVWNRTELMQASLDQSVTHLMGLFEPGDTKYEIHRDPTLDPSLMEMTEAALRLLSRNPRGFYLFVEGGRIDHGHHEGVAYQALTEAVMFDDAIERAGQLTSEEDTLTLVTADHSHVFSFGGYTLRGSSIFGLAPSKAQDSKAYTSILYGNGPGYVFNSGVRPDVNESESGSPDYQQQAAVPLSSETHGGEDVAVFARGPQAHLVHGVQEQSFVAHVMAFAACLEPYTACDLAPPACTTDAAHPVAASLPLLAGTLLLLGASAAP

Collagenase 3 = Collagenase 3 (Homo sapiens, UniProt P45452); assay: MMP13 inhibition and MMP selectivity, late-stage follow-up, selectivity assay for MMP13 inhibitor project, biochemical, probe development, late stage results, panel member MMP-13 [IC50 Assay] (AID 2067)
Neutrophil collagenase = Neutrophil collagenase (Homo sapiens, UniProt P22894); assay: MMP13 inhibition and MMP selectivity, late-stage follow-up, selectivity assay for MMP13 inhibitor project, biochemical, probe development, late stage results, panel member MMP-8 [IC50 Assay] (AID 2067)
Chain of Neutrophil collagenase (P22894 whole entry): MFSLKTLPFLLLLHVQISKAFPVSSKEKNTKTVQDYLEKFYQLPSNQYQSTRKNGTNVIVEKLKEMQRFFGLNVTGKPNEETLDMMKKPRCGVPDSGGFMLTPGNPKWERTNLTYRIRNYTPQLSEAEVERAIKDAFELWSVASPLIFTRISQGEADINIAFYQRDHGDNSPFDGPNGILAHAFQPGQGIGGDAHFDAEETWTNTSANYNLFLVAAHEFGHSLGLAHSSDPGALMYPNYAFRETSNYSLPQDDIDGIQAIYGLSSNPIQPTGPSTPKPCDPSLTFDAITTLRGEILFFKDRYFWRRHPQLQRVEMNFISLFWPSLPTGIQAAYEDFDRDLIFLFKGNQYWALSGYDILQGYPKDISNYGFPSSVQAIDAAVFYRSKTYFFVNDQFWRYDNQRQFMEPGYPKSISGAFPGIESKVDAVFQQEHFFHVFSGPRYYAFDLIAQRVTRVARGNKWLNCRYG

## CC1CCCN(CCCNC(=O)c2cc3c(s2)-c2ccccc2OC3)C1 (stereo not given)
Vero [1]
  CC50: > 25 µM (active)
Vero [2]
  IC50: 18.9 µM (active)
[3]
  IC50: 9.94 µM (active)
Vero [4]
  IC50: > 40 µM (active)
Vero [5]
  CC50: 9.23 µM (active)
Vero [6]
  CC50: 19.6 µM (active)
Vero [7]
  CC50: 6.78 µM (active)

## CCOC(=O)c1c(Nc2nc(C)c(C(=O)NC)s2)sc(C)c1C
[8]
  AC50: 11.6 µM (active)
Estrogen receptor
  IC50: 42.3 µM (not active)

## COc1cc2c3nnc(-c4ccc(F)cc4)c-3cn(Cc3ccccc3)c2cc1OC
[9]
  EC50: 0.921 µM (active)
[10]
  EC50: 5.91 µM (active)
[11]
  EC50: 5.84 µM (active)
[12]
  IC50: 19.2 µM (inactive)
[13]
  IC50: > 20 µM (inactive)
[14]
  EC50: 2.91 µM (active)
[15]
  EC50: > 99 µM (inactive)
[16]
  EC50: > 99 µM (inactive)

## Cc1cccc(SCc2noc(C(=O)NCC3CCCO3)c2C(=O)O)c1 (stereo not given)
[17]
  IC50: > 100 µM (inactive)

## O=C(O)c1ccc(CSc2nc3c(c(=O)[nH]2)CCC3)cc1
Collagenase 3
  IC50: > 39.8 µM (inactive)
Neutrophil collagenase
  IC50: > 39.8 µM (inactive)
